These results are taken from patent US20050037423A1, “Isotopycally coded affinity marker 2” (Bayer Healthcare AG, priority 2001, published 2005).

This data set in a line: Solubility in water. The class given is physicochemical.

The structures appear in SMILES notation.

With `O=C(CCN1C(=O)C=CC1=O)NCCCOCCOCCOCCCNC(=O)[C@H](Cc1c[nH]cn1)NC(=S)Nc1ccc(CNC(=O)CCCC[C@@H]2SC[C@@H]3NC(=O)N[C@@H]32)cc1` [Example 3], the solubility in water result is listed as “completely soluble”.
